# Data reported in article PMC8097466, “In Vivo Targeting of Escherichia coli with Vancomycin-Arginine” (Antimicrobial Agents and Chemotherapy, 2021).
# Like-named read-outs stand apart in the source and are kept apart here.
# Columns and labels:
# [1] = Plasma pharmacokinetics after s.c. administration; design: species or system CD-1 mice; settings: mouse, in vivo, sc
# Protocol: Plasma pharmacokinetics (PK) of V-r after subcutaneous (s.c.) administration (20 and 121 mg/kg) was determined in naive male CD-1 mice (n = 3/group) using liquid chromatography-tandem mass spectrometry for analysis with a lower limit of quantitation of 5 ng/ml (Table 3).
# [2] = Thermodynamic solubility in saline
# [3] = test system: human renal proximal tubular epithelial cells; test: hRPTEC biomarkers cytotoxicity; settings: primary hRPTEC; cell count, nuclear size, DNA structure, mitochondrial mass, mitochondrial membrane potential, phospholipidosis, glutathione content; fetal bovine serum-deficient media
# Text: (§1) Identity was confirmed by ^1H nuclear magnetic resonance and time of flight mass spectrometry, and HCl content was quantified by ion-exchange chromatography.
# [4] = Plasma protein binding, human
# A. baumannii [5] = test system: A. baumannii
# E. coli ATCC 25922 = test: 9-h thigh muscle infection model in neutropenic CD-1 mice; type: in vivo, Escherichia coli
# Protocol: (§2) Using a screening-based strategy, preliminary proof-of-concept studies with V-r employed an abbreviated 9-h thigh muscle infection model in male CD-1 mice rendered neutropenic ([21]). To that end, an E. coli ATCC 25922 isolate was inoculated at 9.7 × 10^4 CFU into both thigh muscles per mouse (n = 5 per experimental group). V-r was administered s.c. every 2 h (110 to 880 mg/kg total dose) starting 1 h postinfection. At 9 h, thigh homogenates were prepared, and CFU were enumerated after culture on CLED (cystine-, lactose-, and electrolyte-deficient) agar. […] In a 24-h thigh muscle infection model, E. coli UTI89 was inoculated at 7.8 × 10^4 CFU into one thigh muscle per mouse (n = 5 to 8 per group) and treated with V-r (total dose, 200 to […]) using an every-6-h dosing regimen from 1 h postinfection. […] Overall, V-r caused an ∼4 to 7.5 log10 reduction in bacterial burden, compared with vehicle control, over the entire dose range.
# A. baumannii [6] = test: microbe, parasite or virus in culture; settings: Acinetobacter baumannii
# human erythrocytes = test: Red blood cell lysis; settings: fetal bovine serum-deficient media
# Text: as §1
# HepG2 = HepG2 cell cytotoxicity; settings: fetal bovine serum-deficient media
# Text: as §1
# [7] = Plasma protein binding, mouse; type: in vitro ADME
# S. pneumoniae = test: MIC determination in alignment with CLSI guidelines; type: cell-based; settings: Streptococcus pneumoniae
# S. agalactiae = test: as above; type: cell-based; settings: Streptococcus agalactiae
# E. coli UTI89 = test: 24-h thigh muscle infection model in neutropenic CD-1 mice; type: in vivo, Escherichia coli; settings: for Log10 (group geometric mean ± SD CFU/g): n = 5 to 8
# Protocol: as §2
# E. coli = test: microbe, parasite or virus in culture; settings: Escherichia coli
# [8] = total dose over 24 h 1,272 mg/kg
structure (smiles),measurement,setting,value
CN[C@H](CC(C)C)C(=O)N[C@H]1C(=O)N[C@@H](CC(N)=O)C(=O)N[C@H]2C(=O)N[C@H]3C(=O)N[C@H](C(=O)N[C@H](C(=O)N[C@H](CCCNC(=N)N)C(N)=O)c4cc(O)cc(O)c4-c4cc3ccc4O)[C@H](O)c3ccc(c(Cl)c3)Oc3cc2cc(c3O[C@@H]2O[C@H](CO)[C@@H](O)[C@H](O)[C@H]2O[C@H]2C[C@](C)(N)[C@H](O)[C@H](C)O2)Oc2ccc(cc2Cl)[C@H]1O [V-r],Clearance,[1]; 20 mg/kg,7.8 mL/min/kg
same,Vd,[1]; 20 mg/kg,0.59 L/kg
same,Clearance,[1]; 121 mg/kg,5.4 mL/min/kg
same,Vd,[1]; 121 mg/kg,0.60 L/kg
same,solubility thermodynamic,"[2]; saline or isotonic, thermodynamic from solid",373 mg/mL
CN[C@H](CC(C)C)C(=O)N[C@H]1C(=O)N[C@@H](CC(N)=O)C(=O)N[C@H]2C(=O)N[C@H]3C(=O)N[C@H](C(=O)N[C@H](C(=O)O)c4cc(O)cc(O)c4-c4cc3ccc4O)[C@H](O)c3ccc(c(Cl)c3)Oc3cc2cc(c3O[C@@H]2O[C@H](CO)[C@@H](O)[C@H](O)[C@H]2O[C@H]2C[C@](C)(N)[C@H](O)[C@H](C)O2)Oc2ccc(cc2Cl)[C@H]1O [Vancomycin],hRPTEC biomarkers (CC50),[3],>100 µM
same,PPB (human % bound),[4],50/50 % bound
same,MIC,"A. baumannii [5]; strain B803, clinical isolate (UK) 2016",128 µg/mL
same,MIC,"A. baumannii [5]; strain GS2AB1, multiresistant clinical isolate (southern Europe) 2017",128 µg/mL
same,MIC,"A. baumannii [5]; strain Naval-81, clinical isolate (USA) 2006",128 µg/mL
same,Impact on E. coli burden,"E. coli ATCC 25922; dose equivalent to the highest dose of V-r, 9 h",failed to significantly impact E. coli burden
same,Log10 change from vehicle (CFU/g),E. coli ATCC 25922; total dose over 9 h 800 mg/kg,−0.51 log10 CFU/g
same,Log10 (group geometric mean ± SD CFU/g),"E. coli ATCC 25922; total dose over 9 h 800 mg/kg, n = 5",6.60 ± 0.66 log10 CFU/g
same,MIC,A. baumannii [6],128 µg/mL
same,Red blood cell lysis (CC50),human erythrocytes,>750 µM
same,HepG2 cell cytotoxicity (CC50),HepG2,>750 µM
same,PPB (mouse % bound),[7],50/50 % bound
same,MIC,S. pneumoniae,0.5 µg/mL
same,MIC,S. pneumoniae; ATCC49619,0.5 µg/mL
same,TD solubility in saline,"[2]; thermodynamic, in saline",> 50 mg/mL
same,MIC,"S. agalactiae; strain B057, clinical isolate (northwest UK)",0.5 µg/mL
same,MIC,"S. agalactiae; strain B063, clinical isolate (northwest UK)",1 µg/mL
same,Log10 change from vehicle (CFU/g),E. coli UTI89; [8],−1.23 log10 CFU/g
same,Log10 (group geometric mean ± SD CFU/g),E. coli UTI89; [8],8.48 ± 1.31 log10 CFU/g
same,MIC,"E. coli; ATCC25922, strain ATCC 25922, CLSI susceptible reference strain",128 µg/mL
same,MIC,"E. coli; ATCCBAA2340, strain ATCC BAA-2340, blaKPC, Ambler A",128 µg/mL
same,MIC,"E. coli; ATCCBAA2469, strain ATCC BAA-2469, blaNDM-1, Ambler B",128 µg/mL
same,MIC,"E. coli; BW25113, strain BW25113, parent strain of BW25113ΔacrB::kan mutant",128 µg/mL
same,MIC,"E. coli; NCTC13441, strain NCTC 13441, uropathogenic ST131, blaCTX-M-15, blaOXA-1, blaTEM-1, Ambler A, D",128 µg/mL
same,MIC,"E. coli; NCTC13462, strain NCTC 13462, blaCTX-M-2, Ambler A",128 µg/mL
same,MIC,"E. coli; NCTC13846, strain NCTC 13846, clinical isolate, bacteremia, mcr-1",64 µg/mL
same,MIC,"E. coli; read-out: MICs, all E. coli and A. baumannii strains tested",64 to 256 µg/mL
same,MIC,"E. coli; strain AR055, blaNDM-1, blaCMY-6, blaOXA-1, Ambler B, C, D",128 µg/mL
same,MIC,"E. coli; strain AR089, blaCMY-2, Ambler C",128 µg/mL
same,MIC,"E. coli; strain AR0114, blaTEM-1B, blaKPC-3, Ambler A",256 µg/mL
same,MIC,"E. coli; strain AR0137, blaNDM-6, blaOXA-9, blaCMY-42, blaCTX-M-15, Ambler B",128 µg/mL
same,MIC,"E. coli; strain AR0150, blaNDM-5, blaTEM-1B, blaCMY-42, Ambler A, B, C",128 µg/mL
same,MIC,"E. coli; strain AR0346, mcr-1, ESBL, Ambler A",256 µg/mL
same,MIC,"E. coli; strain AR0349, mcr-1, ESBL, Ambler A",128 µg/mL
same,MIC,"E. coli; strain AR0350, mcr-1",128 µg/mL
same,MIC,"E. coli; strain AR0493, mcr-1, ESBL, Ambler A",256 µg/mL
same,MIC,"E. coli; strain AR0494, mcr-1",128 µg/mL
same,MIC,"E. coli; strain B096a, clinical isolate (UK) 2016, AmpC, Ambler C",128 µg/mL
same,MIC,"E. coli; strain B808, clinical isolate (UK) 2016, blaTEM-1, blaCTX-M-15, Ambler A",256 µg/mL
same,MIC,"E. coli; strain ExPEC H5, clinical isolate (UK)",128 µg/mL
same,MIC,"E. coli; strain H4/5, clinical isolate, blaTEM-1, blaCTX-M-15, Ambler A",256 µg/mL
same,MIC,"E. coli; strain IR3, clinical isolate, blaNDM-1, Ambler B",128 µg/mL
same,MIC,"E. coli; strain IR45, clinical isolate, blaNDM-1, Ambler B",128 µg/mL
same,MIC,"E. coli; strain IR57, clinical isolate, blaNDM-1, Ambler B",256 µg/mL
same,MIC,"E. coli; strain JW0451-2, BW25113ΔacrB::kan, AcrB-deficient efflux pump mutant",128 µg/mL
same,MIC,"E. coli; strain Swiss 2 (AF45), clinical isolate (South Africa) ST101, mcr-1",128 µg/mL
same,MIC,"E. coli; strain Swiss 13, clinical isolate (France) ST69, mcr-1",128 µg/mL
same,MIC,"E. coli; strain Swiss 15, clinical isolate (Switzerland) ST446, mcr-1, blaCTX-M, Ambler A",128 µg/mL
same,MIC,"E. coli; strain UTI89, clinical isolate from patient with acute bladder infection",128 µg/mL
O=C(O)c1cn(C2CC2)c2cc(N3CCNCC3)c(F)cc2c1=O [Ciprofloxacin],Reduction from stasis,"E. coli UTI89; 24-h model, ciprofloxacin group of Table 5 (20 mg/kg total)",1.4 log10
same,Log10 change from vehicle (CFU/g),E. coli UTI89; total dose over 24 h 20 mg/kg,−6.39 log10 CFU/g
same,Log10 (group geometric mean ± SD CFU/g),E. coli UTI89; total dose over 24 h 20 mg/kg,3.32 ± 0.14 log10 CFU/g
